Where “and” joins values, the source holds several entries; their conditions need not be identical. Equal values may be shown once. Where a name gives a salt, the structure may show the parent alone.
Columns and labels:
[1] = tested on: rats with trigeminal chronic constriction injury (CCI); experiment: Whisker pad mechanical allodynia; type: in vivo, rat; settings: for dose dependence of mechanical threshold at peak time: 2 h after treatment (gabapentin 1 h); for dose dependence of mechanical threshold at peak time / minimal dose required to restore mechanical threshold to baseline: i.p. or p.o.; for peak time of mechanical threshold: i.p. or p.o. treatment; for effective dose decreasing neuropathic hypersensitivity: rodent trigeminal nerve injury models, pioglitazone i.p.
[2] = Pharmacokinetic/toxicokinetic study and BBB permeability in rats; type: in vivo, rat
[3] = tested on: rats; experiment: Observation of neurobehavioral adverse effects after single treatment in rats; type: in vivo, rat
[4] = tested on: rat; settings: i.p.; cited from earlier work
[5] = molecular target: T1, human PPARɣ receptor (Homo sapiens, UniProt P37231); experiment: PPARɣ transactivation luciferase reporter assay in HEK 293 T cells; type: cell-based
T1 sequence (P37231 1-505): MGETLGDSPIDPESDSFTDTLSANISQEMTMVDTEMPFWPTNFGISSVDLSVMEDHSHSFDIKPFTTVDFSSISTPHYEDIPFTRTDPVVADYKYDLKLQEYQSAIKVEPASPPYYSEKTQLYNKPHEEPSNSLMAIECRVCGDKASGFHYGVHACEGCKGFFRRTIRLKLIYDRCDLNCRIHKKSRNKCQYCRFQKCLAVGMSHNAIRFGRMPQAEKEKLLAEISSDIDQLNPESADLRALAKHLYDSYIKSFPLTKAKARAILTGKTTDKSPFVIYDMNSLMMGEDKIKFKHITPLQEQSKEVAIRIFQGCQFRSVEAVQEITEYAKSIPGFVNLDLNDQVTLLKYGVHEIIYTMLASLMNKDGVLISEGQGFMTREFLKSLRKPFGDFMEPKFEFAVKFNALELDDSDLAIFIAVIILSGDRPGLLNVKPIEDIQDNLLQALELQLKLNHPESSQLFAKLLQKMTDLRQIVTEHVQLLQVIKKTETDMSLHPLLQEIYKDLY

[6] = tested on: mouse bone marrow erythroblast; experiment: Genotoxicity study, micronucleus test; type: in vivo; settings: up to highest concentration 500 mg/kg, intraperitoneal
[7] = tested on: mice with TIC injury; experiment: Light/dark place preference anxiety test in mouse chronic TIC model; type: in vivo; settings: six weeks
[8] = tested on: mice with TIC injury; experiment: Whisker pad mechanical allodynia; type: in vivo, mouse
[9] = tested on: Sprague-Dawley rats; experiment: Preliminary 14-day repeat dose toxicity study in rats; type: in vivo, rat
[10] = molecular target: hERG potassium channel (Homo sapiens, UniProt Q12809); experiment: In vitro cardiovascular toxicity study; type: biochemical
[11] = tested on: mice with TIC injury; experiment: Zero maze anxiety test in mouse chronic TIC model; type: in vivo; settings: six weeks, 2 h post treatment
[12] = male, Sprague-Dawley, rat, plasma, ip, 10 mg/kg
[13] = Sprague-Dawley, rat, plasma, po, 10 mg/kg
[14] = from AUC in μM·h, rat, 10 mg/kg i.p.
[15] = from AUC in μM·h, rat, 10 mg/kg i.p., 10 mg/kg
[16] = from AUC in μg·h/mL, rat, 10 mg/kg i.p.
[17] = from Cmax in μM, rat, 10 mg/kg i.p.
[18] = from Cmax in μM, rat, 10 mg/kg i.p., 10 mg/kg
[19] = from Cmax in μg/mL, rat, 10 mg/kg i.p.
[20] = ELB00824 10 mg/kg i.p., carbamazepine 30 mg/kg i.p.

Chain of hERG potassium channel (Q12809 whole entry): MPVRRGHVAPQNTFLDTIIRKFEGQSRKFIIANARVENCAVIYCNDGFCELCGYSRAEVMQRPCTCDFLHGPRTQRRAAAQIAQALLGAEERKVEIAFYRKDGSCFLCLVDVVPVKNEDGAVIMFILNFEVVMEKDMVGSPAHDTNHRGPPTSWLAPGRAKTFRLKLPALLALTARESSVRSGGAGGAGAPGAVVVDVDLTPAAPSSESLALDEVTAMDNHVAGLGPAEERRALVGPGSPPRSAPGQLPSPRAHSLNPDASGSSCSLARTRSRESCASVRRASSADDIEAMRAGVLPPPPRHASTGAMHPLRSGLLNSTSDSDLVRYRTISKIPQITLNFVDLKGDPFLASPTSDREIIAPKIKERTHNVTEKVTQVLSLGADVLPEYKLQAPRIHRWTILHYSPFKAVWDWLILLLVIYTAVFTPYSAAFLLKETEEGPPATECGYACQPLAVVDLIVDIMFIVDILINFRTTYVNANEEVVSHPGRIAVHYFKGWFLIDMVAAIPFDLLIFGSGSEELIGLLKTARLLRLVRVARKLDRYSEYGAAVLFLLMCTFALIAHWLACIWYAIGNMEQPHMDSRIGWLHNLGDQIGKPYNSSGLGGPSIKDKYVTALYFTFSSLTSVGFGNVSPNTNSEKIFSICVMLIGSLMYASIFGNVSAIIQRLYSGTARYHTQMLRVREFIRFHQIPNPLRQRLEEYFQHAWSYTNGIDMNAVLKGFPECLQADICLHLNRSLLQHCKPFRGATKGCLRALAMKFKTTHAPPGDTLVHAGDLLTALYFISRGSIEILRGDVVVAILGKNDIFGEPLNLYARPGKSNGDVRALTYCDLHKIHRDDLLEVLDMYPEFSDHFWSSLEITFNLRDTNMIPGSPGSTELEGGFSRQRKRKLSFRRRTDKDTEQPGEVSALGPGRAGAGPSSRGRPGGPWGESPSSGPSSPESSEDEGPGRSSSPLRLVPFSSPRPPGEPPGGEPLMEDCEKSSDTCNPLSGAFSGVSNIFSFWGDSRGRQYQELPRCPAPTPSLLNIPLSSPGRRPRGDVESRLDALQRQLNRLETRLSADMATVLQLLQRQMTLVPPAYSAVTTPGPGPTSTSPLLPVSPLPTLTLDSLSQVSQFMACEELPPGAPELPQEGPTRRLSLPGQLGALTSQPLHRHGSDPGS

Which “dose dependence of mechanical threshold at peak time” value [1] does the source give for `CCc1ccc(CCOc2ccc(CC3SC(=O)NC3=O)cc2)nc1` (stereo not drawn) [Pioglitazone, pioglitazone hydrochloride, reference compound] here?
Its value is “dose-dependently increased the mechanical threshold”.

What about the “minimal dose required to restore mechanical threshold to baseline” value [1] of the same compound?
The value was 1000 mg/kg.

And the “peak time of mechanical threshold” value [1]?
The value was 2 h.

And the “effective dose decreasing neuropathic hypersensitivity” value [1]?
The value was 1000 mg/kg.

What about the Tmax ([2]; male, Sprague-Dawley, rat, brain, ip, 10 mg/kg) of the same compound?
The Tmax was 1 h.

And the AUC(0-t) [2, 12]?
Its AUC(0-t) is 34500 ng·h/mL and 87.7 µM·h.

And the Cmax [2, 12]?
Its Cmax is 9770 ng/mL and 24.9 µM.

What about the “Brain Cmax” value ([2]; rat brain, 10 mg/kg i.p., 10 mg/kg) of the same compound?
Its value is 0.68 ± 0.14 μg/mL and 1.73 ± 0.22 μM.

What about the “toxic signs and symptoms” value ([3]; 300 mg/kg i.p. or p.o., most rats, beginning one day after treatment) of the same compound?
The value was “showed toxic signs and symptoms”.

What about the “rat LD50” value [4] of the same compound?
Its value is 558 to 587 mg/kg.

With `CC(=O)Nc1ccc(O)cc1` [acetaminophen, reference compound] as the compound, how does the “attenuation of mechanical allodynia” value ([1]; doses as high as 1000 mg/kg) read?
Its value is “neither acetaminophen nor ibuprofen attenuated mechanical allodynia”.

Which “change of mechanical threshold” value ([1]; 10–30 mg/kg i.p. alone, 1 to 4 h after injection) does the source give for `O=C(Nc1ccccc1)c1cc([N+](=O)[O-])ccc1Cl` [GW9662, reference compound] here?
The value was “did not change mechanical threshold”.

With `CCc1ccc(CC/C=C/c2ccc3c(c2)C(=O)CC3)cc1` [ELB00824, (E)-6–(4-(4-ethylphenyl)but-1-en-1-yl)-2,3-dihydro-1H-inden-1-one] as the compound, how does the “maximal activities (% control), PPARɣ activation” value [5] read?
The value was 45 ± 4%.

What about the “mechanical threshold at 1.5 h” value ([1]; 2.5 mg topical (7% cream, 50 mg/cm^2)) of the same compound?
Its value is 8.9 ± 1.5 g.

And the “mechanical threshold at 1.5 h” value ([1]; 5 mg topical (7% cream, 100 mg/cm^2))?
Its value is 19.7 ± 3.1 g.

What about the “mechanical threshold at 3 h after treatment” value (shortened to “mechanical threshold at 3 h”) ([1]; 10 mg/kg i.p.) of the same compound?
Its value is 3.5 ± 0.9 g.

What about the “ipsilateral whisker pad mechanical threshold” value ([1]; 10 mg/kg i.p., 1 h, 5-14 days post-CCI) of the same compound?
Its value is 11.4 ± 2.2 g.

And the “ipsilateral whisker pad mechanical threshold (peak)” value ([1]; 10 mg/kg i.p., 2 h, ELB00824 only)?
The value was 14.9 ± 2.5 g.

What about the “mechanical threshold at 3 h” value ([1]; 10 mg/kg p.o.) of the same compound?
Its value is 2.8 ± 0.5 g.

What about the “dose dependence of mechanical threshold at peak time” value [1] of the same compound?
Its value is “dose-dependently increased the mechanical threshold”.

And the “mechanical threshold 1 h after injection” value ([1]; ELB00824 3 mg/kg i.p. and/or gabapentin 0.3 mg/kg i.p., one-time dose)?
The value was 2.5 ± 0.3 g.

And the “onset of symptom relief” value ([1]; higher dose topical)?
Its value is 0.5 h.

What about the “minimal dose required to restore mechanical threshold to baseline” value [1] of the same compound?
The value was 10 mg/kg.

What about the “peak time of mechanical threshold” value [1] of the same compound?
The value was 2 h.

What about the “effective dose decreasing neuropathic hypersensitivity” value [1] of the same compound?
Its value is 10 mg/kg.

What about the “onset of symptom relief” value ([1]; systematic treatment, either i.p. or p.o., 10 mg/kg) of the same compound?
Its value is 1 h.

What about the “mechanical threshold at 3 h” value ([1]; topical treatment) of the same compound?
The value was 8.9 ± 1.1 g.

And the “chromosome damage in mouse bone marrow erythroblast” value [6]?
Its value is “did not induce a significant increase of chromosome damage”.

What about the “occupancy time and number of times that rearing occurred” value ([7]; compared with carbamazepine) of the same compound?
Its value is “less robust anti-anxiety behaviors”.

What about the “latency to enter into the lighted chamber” value ([7]; two hours after injection) of the same compound?
Its value is 10 ± 12 s.

And the Tmax ([2]; Sprague-Dawley, rat, brain, po, 10 mg/kg)?
The Tmax was 3 h.

And the AUC(0-t) [2, 13]?
Its AUC(0-t) is 3030 ng·h/mL.

And the Cmax [2, 13]?
The Cmax was 350 ng/mL.

And the Tmax [2, 13]?
The Tmax was 1 h.

And the “Plasma AUC0–24h ratio ELB00824/Pioglitazone” value [2, 14]?
Its value is 0.3.

What about the “Plasma AUC0–24h ratio ELB00824/Rosiglitazone” value [2, 14] of the same compound?
The value was 0.4.

And the “Brain AUC0–24h ratio ELB00824/Pioglitazone” value [2, 15]?
Its value is 15.

And the “Brain AUC0–24h ratio ELB00824/Rosiglitazone” value [2, 15]?
The value was 21.

What about the “Brain AUC0–24h ratio ELB00824/Pioglitazone” value [2, 16] of the same compound?
Its value is 11.

And the “Brain AUC0–24h ratio ELB00824/Rosiglitazone” value [2, 16]?
The value was 17.

And the “Plasma AUC0–24h ratio ELB00824/Pioglitazone” value [2, 16]?
Its value is 0.2.

And the “Plasma AUC0–24h ratio ELB00824/Rosiglitazone” value [2, 16]?
Its value is 0.3.

And the “Plasma Cmax ratio ELB00824/Pioglitazone” value [2, 17]?
The value was 0.2.

What about the “Plasma Cmax ratio ELB00824/Rosiglitazone” value [2, 17] of the same compound?
The value was 0.3.

And the “Brain Cmax ratio ELB00824/Pioglitazone” value [2, 18]?
Its value is 5.4.

And the “Brain Cmax ratio ELB00824/Rosiglitazone” value [2, 18]?
The value was 6.7.

And the “Brain Cmax ratio ELB00824/Pioglitazone” value [2, 19]?
Its value is 4.0.

What about the “Brain Cmax ratio ELB00824/Rosiglitazone” value [2, 19] of the same compound?
The value was 5.5.

And the “Plasma Cmax ratio ELB00824/Pioglitazone” value [2, 19]?
The value was 0.1.

And the “Plasma Cmax ratio ELB00824/Rosiglitazone” value [2, 19]?
The value was 0.2.

What about the concentration at 1 h ([2]; male, Sprague-Dawley, rat, brain, po, 10 mg/kg) of the same compound?
Its concentration at 1 h is 1160 ng/mL and 4.01 µM.

And the concentration at 1 h ([2]; male, Sprague-Dawley, rat, brain, po, 30 mg/kg)?
Its concentration at 1 h is 4110 ng/mL and 14.2 µM.

And the concentration at 1 h ([2]; male, Sprague-Dawley, rat, brain, po, 120 mg/kg)?
The concentration at 1 h was 7570 ng/mL and 26.1 µM.

And the concentration at 1 h ([2]; male, Sprague-Dawley, rat, brain, po, 450 mg/kg)?
Its concentration at 1 h is 11000 ng/mL and 38 µM.

What about the Kp ([2]; male, Sprague-Dawley, rat, brain/plasma, ip, 10 mg/kg) of the same compound?
Its Kp is 5.13.

What about the AUC(0-t) [2, 12] of the same compound?
The AUC(0-t) was 6550 ng·h/mL and 22.6 µM·h.

And the Cmax [2, 12]?
Its Cmax is 1120 ng/mL and 3.85 µM.

What about the Tmax [2, 12] of the same compound?
Its Tmax is 0.5 h.

And the concentration at 1 h ([2]; male, Sprague-Dawley, rat, plasma, po, 10 mg/kg)?
The concentration at 1 h was 270 ng/mL and 940 nM.

What about the concentration at 1 h ([2]; male, Sprague-Dawley, rat, plasma, po, 30 mg/kg) of the same compound?
Its concentration at 1 h is 820 ng/mL and 2.81 µM.

And the concentration at 1 h ([2]; male, Sprague-Dawley, rat, plasma, po, 120 mg/kg)?
Its concentration at 1 h is 1510 ng/mL and 5.2 µM.

And the concentration at 1 h ([2]; male, Sprague-Dawley, rat, plasma, po, 450 mg/kg)?
Its concentration at 1 h is 2200 ng/mL and 7.57 µM.

And the “Brain AUC0–24h” value ([2]; rat brain, 10 mg/kg p.o.)?
Its value is 10370 ng·h/mL.

What about the “Brain Cmax” value ([2]; rat brain, 10 mg/kg p.o.) of the same compound?
The value was 1.82 µg/mL.

And the “plasma Cmax and AUC0–24h relative to those of pioglitazone or rosiglitazone” value ([2]; rat plasma, 10 mg/kg i.p.)?
The value was “less than 0.3 fold”.

And the “relative brain bioavailability (AUC0–24h) of oral versus i.p. injection” value ([2]; rat, 10 mg/kg)?
The value was 31%.

And the “relative plasma bioavailability (AUC0–24h) of oral versus i.p. injection” value ([2]; rat, 10 mg/kg)?
Its value is 46%.

What about the “allodynia compared to vehicle, contralateral side, week 6” value ([8]; 10 mg/kg i.p.) of the same compound?
Its value is “significantly improved allodynia”.

What about the “mechanical threshold relative to carbamazepine, week 3” value ([8]; 2 h post injection) of the same compound?
The value was 4.3 fold.

And the “allodynia compared to vehicle, ipsilateral side, week 6” value [8, 20]?
Its value is “significantly improved allodynia”.

What about the “whisker pad mechanical threshold at 2 h post injection, week 3” value [8, 20] of the same compound?
Its value is 6 ± 0.0 g.

And the “time of peak effect” value ([8]; week 3, one-time i.p. dose)?
Its value is 2 h.

What about the “observable neurobehavioral adverse effects” value ([3]; doses of up to 1000 mg/kg i.p. or p.o., one week observation) of the same compound?
Its value is “not discernable”.

And the “hematological, blood coagulation and serum biochemistry parameters (55 parameters) compared with controls” value ([9]; day 15, male and female)?
Its value is “No significant changes”.

What about the “hemoglobin and hematocrit values vs control” value ([9]; male 450 mg/kg group, day 15) of the same compound?
Its value is “slightly lower hemoglobin and hematocrit values”.

What about the IC50 [10] of the same compound?
Its IC50 is > 30 µM.

What about the “latency to move to the closed area” value [11] of the same compound?
The value was 11.6 ± 3.9 s.

What about the “time spent in the closed area of the maze” value ([11]; ELB00824 10 mg/kg, carbamazepine 30 mg/kg) of the same compound?
Its value is 103 ± 21 s.

Source: PMC6843736 (Molecular Pain, 2019)
